# Results reported in patent US8227406B2, “Antimicrobial peptides” (Dermagen AB, priority 2006, dated 2012).
# Where “and” joins values, the source holds several entries; their conditions need not be identical. Equal entries are not always repeated.
# Experiments:
# [1] = tested on: Staphylococcus aureus ATCC29213; assay: Radial diffusion assay (RDA), S. aureus; format: cell-based; set-up: Data (RDA antimicrobial activity, single replicates) / Mean (RDA antimicrobial activity): unit not given here; details: for Data (RDA antimicrobial activity, single replicates) / Mean (RDA antimicrobial activity): S. aureus; for Data (RDA antimicrobial activity, single replicates): individual replicate; for Mean (RDA antimicrobial activity): mean of 3
# Method: (§1) Peptides. Peptides were from Sigma-Genosys, generated by a peptide synthesis platform (PEPscreen®, Custom Peptide Libraries, SigmaGenosys). Yield was ˜1-6 mg, and peptide length 20 amino acids. MALDI-ToF Mass Spectrometry was perfomed on these peptides. Average Crude Purity of 20mers was ˜60%. Peptides were supplied lyophilized and in a 96-well tube rack. Prior to biological testing the PEPscreen peptides were diluted in dH2O (5 mM stock), and stored at −20 C. This stock solution was used for the subsequent experiments.
# (§2) Eschericia coli ATCC25922, Staphylococcus aureus ATCC29213, and the fungal isolate Candida albicans ATCC90028 were obtained from the Department of Bacteriology, Lund University Hospital.
# (§3) Radial diffusion assays (RDA) were performed essentially as described earlier (Lehrer, R. I., Rosenman, M., Harwig, S. S., Jackson, R. & Eisenhauer, P. (1991) Ultrasensitive assays for endogenous antimicrobial polypeptides, J Immunol Methods. 137, 167-73). Briefly, bacteria (E. coli, S. aureus) or fungi (C. albicans) were grown to midlogarithmic phase in 10 ml of full-strength (3% w/v) trypticase soy broth (TSB) (Becton-Dickinson, Cockeysville, Md.). The microorganisms were washed once with 10 mM Tris, pH 7.4. 4×10^6 bacterial cfu or 1×10^5 fungal cfu was added to 5 ml of the underlay agarose gel, consisting of 0.03% (w/v) TSB, 1% (w/v) low-electroendoosmosistype (Low-EEO) agarose (Sigma, St Louise Mo.) and a final concentration of 0.02% (v/v) Tween 20 (Sigma). The underlay was poured into a Ø 85 mm petri dish. After agarose solidified, 4 mm-diameter wells were punched and 6 μl of test sample was added to each well. Plates were incubated at 37° C. for 3 hours to allow diffusion of the peptides. The underlay gel was then covered with 5 ml of molten overlay (6% TSB and 1% Low-EEO agarose in dH2O). Antimicrobial activity of a peptide is visualized as a clear zone around each well after 18-24 hours of incubation at 37° C. for bacteria and 28° C. for Candida albicans. Other examples of peptides that were screened and found to show an increased effect against the above mentioned microorgansism are listed below. Some of the results are found in table 1c showing the effects against C. albicans, table 1d E. coli and table 1e S. aureus.
# [2] = tested on: Candida albicans ATCC90028; assay: Radial diffusion assay (RDA), C. albicans; format: cell-based; set-up: unit not given here; details: for RDA Mean, C. albicans / RDA Data (single replicates), C. albicans: Table 1c; for RDA Data (single replicates), C. albicans: individual values
# Method: as §1, §2, §3
# [3] = tested on: Eschericia coli ATCC25922; assay: Radial diffusion assay (RDA), E. coli; format: cell-based, Escherichia coli; set-up: Data (RDA antimicrobial activity, single replicates) / Mean (RDA antimicrobial activity): unit not given here; details: for Data (RDA antimicrobial activity, single replicates) / Mean (RDA antimicrobial activity): E. coli; for Data (RDA antimicrobial activity, single replicates): individual replicate; for Mean (RDA antimicrobial activity): mean of 3
# Method: as §1, §2, §3
# [4] = tested on: erythrocytes; assay: Hemolysis assay; format: cell-based; details: % of TritonX-100 induced hemolysis; erythrocytes 1 h at 37° C.; peptides (3-60 μM)
# Method: EDTA-blood was centrifuged at 800 g for 10 min, whereafter plasma and buffy coat were removed. The erythrocytes were washed three times and resuspended in 5% PBS, pH 7.4. The cells were then incubated with end-over-end rotation for 1 h at 37° C. in the presence of peptides (3-60 μM). 2% Triton X-100 (Sigma-Aldrich) served as positive control. The samples were then centrifuged at 800 g for 10 min. The absorbance of hemoglobin release was measured at λ 540 nm and is in the plot expressed as % of TritonX-100 induced hemolysis (Table 1a).
# [5] = Table 1b, 10 mM Tris Hcl (pH 7.4)
compound,measurement,setting,value
"CC[C@H](C)[C@H](NC(=O)[C@H](CCCCN)NC(=O)[C@H](CCC(=O)O)NC(=O)[C@H](CCCCN)NC(=O)[C@H](CO)NC(=O)[C@H](CCCCN)NC(=O)[C@H](CCCNC(=N)N)NC(=O)[C@H](Cc1ccccc1)NC(=O)[C@H](Cc1ccccc1)NC(=O)[C@H](CC(=O)O)NC(=O)CNC(=O)[C@H](CC(C)C)NC(=O)[C@@H](N)CC(C)C)C(=O)NCC(=O)N[C@@H](CCCCN)C(=O)N[C@@H](CCC(=O)O)C(=O)N[C@@H](Cc1ccccc1)C(=O)N[C@@H](CCCCN)C(=O)N[C@@H](CCCNC(=N)N)C(=O)N[C@H](C(=O)N[C@H](C(=O)N[C@@H](CCC(N)=O)C(=O)N[C@@H](CCCNC(=N)N)C(=O)N[C@H](C(=O)N[C@@H](CCCCN)C(=O)N[C@@H](CC(=O)O)C(=O)N[C@@H](Cc1ccccc1)C(=O)N[C@@H](CC(C)C)C(=O)N[C@@H](CCCNC(=N)N)C(=O)N[C@@H](CC(N)=O)C(=O)N[C@@H](CC(C)C)C(=O)N[C@H](C(=O)N1CCC[C@H]1C(=O)N[C@@H](CCCNC(=N)N)C(=O)N[C@H](C(=O)N[C@@H](CCC(=O)O)C(=O)N[C@@H](CO)C(=O)O)[C@@H](C)O)C(C)C)[C@@H](C)CC)C(C)C)[C@@H](C)CC [LL-37, reference compound]",S. aureus ATCC 29213 Mean,"[1]; Table 1a, RDA clear zone",4.660
same,RDA values (mm) S. aureus ATCC 29213,[1]; [5],3.23 mm
same,Candida albicans ATCC 90028 Mean,"[2]; Table 1a, RDA clear zone",4.890
same,"E.coli ATCC 25922 Mean, Ingrowth* counted","[3]; Table 1a, RDA clear zone, ingrowth counted",6.53
same,"E.coli ATCC 25922 Mean, Ingrowth not counted","[3]; Table 1a, RDA clear zone, ingrowth not counted",0.653
same,RDA values (mm) E. coli ATCC 25922,[3]; [5],7.55 mm
same,Hemolysis (%) Mean,[4],21.464%
PKRKKKGGKNGKNRRNRKKKNWWW [PKR-21-WWW],"Data (RDA antimicrobial activity, single replicates)",[1]; peptide 0.1 μM,0
same,Mean (RDA antimicrobial activity),[1]; peptide 0.1 μM,0.00
same,"Data (RDA antimicrobial activity, single replicates)",[1]; peptide 0.5 μM,0
same,Mean (RDA antimicrobial activity),[1]; peptide 0.5 μM,0.00
same,"Data (RDA antimicrobial activity, single replicates)",[1]; peptide 1 μM,2.56 and 2.59 and 3.06
same,Mean (RDA antimicrobial activity),[1]; peptide 1 μM,2.74
same,"Data (RDA antimicrobial activity, single replicates)",[1]; peptide 5 μM,2.98 and 2.5 and 3.07
same,Mean (RDA antimicrobial activity),[1]; peptide 5 μM,2.85
same,"Data (RDA antimicrobial activity, single replicates)",[1]; peptide 10 μM,3.53 and 4.06 and 3.83
same,Mean (RDA antimicrobial activity),[1]; peptide 10 μM,3.81
same,"Data (RDA antimicrobial activity, single replicates)",[1]; peptide 50 μM,4.21 and 5.14 and 4.23
same,Mean (RDA antimicrobial activity),[1]; peptide 50 μM,4.53
same,"Data (RDA antimicrobial activity, single replicates)",[1]; peptide 100 μM,4.77 and 5.67 and 5.02
same,Mean (RDA antimicrobial activity),[1]; peptide 100 μM,5.15
same,"RDA Mean, C. albicans",[2]; peptide 0.1 μM,0.00
same,"RDA Data (single replicates), C. albicans",[2]; peptide 0.1 μM,0.00
same,"RDA Mean, C. albicans",[2]; peptide 0.5 μM,0.00
same,"RDA Data (single replicates), C. albicans",[2]; peptide 0.5 μM,0.00
same,"RDA Mean, C. albicans",[2]; peptide 1 μM,0.49
same,"RDA Data (single replicates), C. albicans",[2]; peptide 1 μM,0.55 and 0.42 and 0.51
same,"RDA Mean, C. albicans",[2]; peptide 5 μM,1.14
same,"RDA Data (single replicates), C. albicans",[2]; peptide 5 μM,1.26 and 1.06 and 1.10
same,"RDA Mean, C. albicans",[2]; peptide 10 μM,3.11
same,"RDA Data (single replicates), C. albicans",[2]; peptide 10 μM,3.54 and 2.82 and 2.97
same,"RDA Mean, C. albicans",[2]; peptide 50 μM,5.47
same,"RDA Data (single replicates), C. albicans",[2]; peptide 50 μM,5.84 and 5.44 and 5.13
same,"RDA Mean, C. albicans",[2]; peptide 100 μM,6.97
same,"RDA Data (single replicates), C. albicans",[2]; peptide 100 μM,6.69 and 7.04 and 7.19
same,"Data (RDA antimicrobial activity, single replicates)",[3]; peptide 0.1 μM,0
same,Mean (RDA antimicrobial activity),[3]; peptide 0.1 μM,0.00
same,"Data (RDA antimicrobial activity, single replicates)",[3]; peptide 0.5 μM,1.26 and 1.05 and 0.84
same,Mean (RDA antimicrobial activity),[3]; peptide 0.5 μM,1.05
same,"Data (RDA antimicrobial activity, single replicates)",[3]; peptide 1 μM,3.6 and 2.59 and 3.49
same,Mean (RDA antimicrobial activity),[3]; peptide 1 μM,3.23
same,"Data (RDA antimicrobial activity, single replicates)",[3]; peptide 5 μM,4.99 and 5.03 and 4.75
same,Mean (RDA antimicrobial activity),[3]; peptide 5 μM,4.92
same,"Data (RDA antimicrobial activity, single replicates)",[3]; peptide 10 μM,5.86 and 5.87 and 6.13
same,Mean (RDA antimicrobial activity),[3]; peptide 10 μM,5.95
same,"Data (RDA antimicrobial activity, single replicates)",[3]; peptide 50 μM,7.71 and 7.97 and 6.98
same,Mean (RDA antimicrobial activity),[3]; peptide 50 μM,7.55
same,"Data (RDA antimicrobial activity, single replicates)",[3]; peptide 100 μM,7.34 and 8.26 and 7.99
same,Mean (RDA antimicrobial activity),[3]; peptide 100 μM,7.86
